We go through four molecules from ChEMBL document CHEMBL2021797, “Synthesis and structure-activity relationship study of antimicrotubule agents phenylahistin derivatives with a didehydropiperazine-2,5-dione structure” (J Med Chem, 2012).

Data set [1] concerns HT-29. Briefly: Cytotoxicity against human HT-29 cells after 48 hrs using resazurin by microplate fluorometer analysis. It is filed as functional, cell-based. As to conditions: HT-29, 48 h. On the technique in general: Resazurin is reduced to fluorescent resorufin, in cell work by metabolically active cells.
Data set [2] in a line: Binding affinity to bovine tubulin after 1 hr by spectrofluorometric analysis. On the set-up: species or system Bos taurus.
Data set [3] has as its system HeLa. The experiment in a line: Induction of cell cycle arrest in human HeLa cells assessed as accumulation at G0/G1 phase at 10 nM after 18 hrs by propidium iodide based flow cytometric analysis (reference value: 43.9 %). It is filed as functional.
Data set [4] relates to HeLa. The experiment in a line: Induction of cell cycle arrest in human HeLa cells assessed as accumulation at S phase at 10 nM after 18 hrs by propidium iodide based flow cytometric analysis (reference value: 39.9 %). The data set is classed as functional.
Data set [5] deals with HeLa. Briefly: Induction of cell cycle arrest in human HeLa cells assessed as accumulation at G2/M phase at 10 nM after 18 hrs by propidium iodide based flow cytometric analysis (reference value: 16.2 %). The data set is classed as functional. (In general: In flow cytometry, cells or beads pass a laser one at a time.)
Data set [6] deals with HeLa. Briefly: Induction of cell cycle arrest in human HeLa cells assessed as accumulation at G0/G1 phase at 30 nM after 18 hrs by propidium iodide based flow cytometric analysis (reference value: 43.9 %). It is filed as functional.
Data set [7] has as its system HeLa. Briefly: Induction of cell cycle arrest in human HeLa cells assessed as accumulation at S phase at 30 nM after 18 hrs by propidium iodide based flow cytometric analysis (reference value: 39.9 %). It is filed as functional.
In data set [8] the test system is HeLa. The experiment in a line: Induction of cell cycle arrest in human HeLa cells assessed as accumulation at G2/M phase at 30 nM after 18 hrs by propidium iodide based flow cytometric analysis (reference value: 16.2 %). The data set is classed as functional.
Data set [9] can be described thus: Inhibition of bovine brain tubulin polymerization by thermostatic spectrophotometer. Also on record: species or system Bos taurus.
The test system of data set [10] is HeLa. The experiment in a line: Induction of cell cycle arrest in human HeLa cells assessed as accumulation at G0/G1 phase at 3 nM after 18 hrs by propidium iodide based flow cytometric analysis (reference value: 43.9 %). The data set is classed as functional.
In data set [11] the test system is HeLa. The experiment in a line: Induction of cell cycle arrest in human HeLa cells assessed as accumulation at S phase at 3 nM after 18 hrs by propidium iodide based flow cytometric analysis (reference value: 39.9 %). The data set is classed as functional.
Data set [12] concerns HeLa. The experiment in a line: Induction of cell cycle arrest in human HeLa cells assessed as accumulation at G2/M phase at 3 nM after 18 hrs by propidium iodide based flow cytometric analysis (reference value: 16.2 %). It is filed as functional.
Data set [13] concerns HUVEC. Briefly: Cytotoxicity against HUVEC after 48 hrs using resazurin by microplate fluorometer analysis. The data set is classed as cell-based. As to conditions: Homo sapiens.
The test system of data set [14] is HUVEC. Briefly: Induction of microtubule depolymerization in HUVEC after 30 mins by DAPI staining method. As to conditions: Homo sapiens. The data set is classed as cell-based.
Data set [15] concerns DU-145. Briefly: Antitumor activity against human DU145 cells xenografted in nu/nu mouse assessed as tumor growth inhibition at 7.5 mg/kg, ip administered on day 1, 3, 5, 8 and […] measured on day 40 relative to control. It is filed as functional. Conditions: DU-145, ip, route intraperitoneal, read-out: TGI. (A xenograft is tissue or cells of one species grown in another, often human tumour cells in immunodeficient mice.)

The test system of data set [16] is HeLa. Briefly: Induction of cell cycle arrest in human HeLa cells assessed as accumulation at G0/G1 phase at 100 nM after 18 hrs by propidium iodide based flow cytometric analysis (reference value: 43.9 %). The data set is classed as functional.
Data set [17] deals with HeLa. Briefly: Induction of cell cycle arrest in human HeLa cells assessed as accumulation at S phase at 100 nM after 18 hrs by propidium iodide based flow cytometric analysis (reference value: 39.9 %). The data set is classed as functional.
Data set [18] has as its system HeLa. Briefly: Induction of cell cycle arrest in human HeLa cells assessed as accumulation at G2/M phase at 100 nM after 18 hrs by propidium iodide based flow cytometric analysis (reference value: 16.2 %). It is filed as functional.
The test system of data set [19] is Mus musculus. The experiment in a line: Toxicity in nu/nu mouse assessed as weight loss at 1.25 to 7.5 mg/kg, ip after 40 days. The data set is classed as organism-based. Conditions: in vivo, 960 h.
Data set [20] concerns DU-145. Briefly: Antitumor activity against human DU145 cells xenografted in nu/nu mouse assessed as tumor growth inhibition at […], ip administered on day 1, 3, 5, 8 and […] measured on day 40 relative to control. The data set is classed as functional. As to conditions: DU-145, ip, read-out: TGI.
Data set [21] has as its system DU-145. Briefly: Antitumor activity against human DU145 cells xenografted in nu/nu mouse assessed as tumor growth inhibition at 3.75 mg/kg, ip administered on day 1, 3, 5, 8 and […] measured on day 40 relative to control. Conditions: DU-145, ip, route intraperitoneal, read-out: TGI. It is filed as functional.
Data set [22] relates to DU-145. Conditions: Homo sapiens.

Molecules are shown by their SMILES.

One may read the IC50 as the point on the concentration scale where inhibition reaches its midpoint. In data set [1], `COc1cc(/C=c2\[nH]c(=O)/c(=C/c3nc[nH]c3C(C)(C)C)[nH]c2=O)cc(OC)c1` displayed an IC50 of 45.4 nM.
The term Kd denotes the concentration at which binding is half-saturated. A high value points to lower affinity. In data set [2], `COc1cc2c(c(OC)c1OC)-c1ccc(OC)c(=O)cc1[C@@H](NC(C)=O)CC2` [COLCHICINE] had a Kd of […]. 16 nM corresponded to half-maximal inhibition in data set [1] (IC50). Moreover, the Activity in data set [3] was 47.5%; in data set [4], 31.5%; in data set [5], 21%; in data set [6], 1.3%; in data set [7], 8.9%; in [8], 89.9%.
With `COc1ccc(/C=C\c2cc(OC)c(OC)c(OC)c2)cc1O` [COMBRETASTATIN A4], the IC50 in [9] turned out to be 550 nM; in data set [13] it was 2.4 nM. Further, the Activity in data set [3] is given as 0.4%; in [4] it was 8.8%; in data set [5], 90.7%; in [10] it was 34.6%; in data set [11], 28.1%; in data set [12], 37.4%. In addition, the ED100 in data set [14] stood at 10 nM.
For `CC(C)(C)c1[nH]cnc1/C=c1\[nH]c(=O)/c(=C/c2ccccc2)[nH]c1=O` [PLINABULIN], the inhibition in vivo at 7.5 mg/kg in data set [15] came out at 58.5%. Further, in data set [2], the Kd came to 1000 nM. The 50% inhibitory concentration (IC50) came to 1310 nM in data set [9] and 11 nM in data set [13]. In addition, the Activity in [3] amounted to 44.6%; in data set [4] it was 37.5%; in data set [5] it was 17.9%; in [6], 4.2%; in [7], 40.4%; in [8] it was 55.3%. Moreover, the Activity in data set [16] is 0%; in [17] it was 2.4%; in data set [18] it was 97.6%; in data set [19], “Non-toxic”. Moreover, the ED100 in [14] amounted to 3 nM. For the same molecule, the inhibition in vivo at […] in data set [20] was 29%. Further, the inhibition in vivo at 3.75 mg/kg in data set [21] worked out at 38.6%. Further, the TGI entry in data set [22] is “Dose-dependent effect”.
